Experimental data: patent US20220280538A1, “METHODS OF TREATING P53 MUTANT CANCERS USING OGDH INHIBITORS” (MEMORIAL SLOAN KETTERING CANCER CENTER, priority 2019, published 2022)

How the values were obtained:
[1] = tested on: Nras^G12D; Mll-Af9 murine AML cells; test: aKG:succinate ratio in AML cells by GC/MS; assay type: cell-based; details: FIG. 20F
OGDH = target: T1, OGDH (Homo sapiens, UniProt Q02218); test: OGDH enzyme inhibition in vitro; assay type: biochemical
T1 sequence (Q02218 41-1023): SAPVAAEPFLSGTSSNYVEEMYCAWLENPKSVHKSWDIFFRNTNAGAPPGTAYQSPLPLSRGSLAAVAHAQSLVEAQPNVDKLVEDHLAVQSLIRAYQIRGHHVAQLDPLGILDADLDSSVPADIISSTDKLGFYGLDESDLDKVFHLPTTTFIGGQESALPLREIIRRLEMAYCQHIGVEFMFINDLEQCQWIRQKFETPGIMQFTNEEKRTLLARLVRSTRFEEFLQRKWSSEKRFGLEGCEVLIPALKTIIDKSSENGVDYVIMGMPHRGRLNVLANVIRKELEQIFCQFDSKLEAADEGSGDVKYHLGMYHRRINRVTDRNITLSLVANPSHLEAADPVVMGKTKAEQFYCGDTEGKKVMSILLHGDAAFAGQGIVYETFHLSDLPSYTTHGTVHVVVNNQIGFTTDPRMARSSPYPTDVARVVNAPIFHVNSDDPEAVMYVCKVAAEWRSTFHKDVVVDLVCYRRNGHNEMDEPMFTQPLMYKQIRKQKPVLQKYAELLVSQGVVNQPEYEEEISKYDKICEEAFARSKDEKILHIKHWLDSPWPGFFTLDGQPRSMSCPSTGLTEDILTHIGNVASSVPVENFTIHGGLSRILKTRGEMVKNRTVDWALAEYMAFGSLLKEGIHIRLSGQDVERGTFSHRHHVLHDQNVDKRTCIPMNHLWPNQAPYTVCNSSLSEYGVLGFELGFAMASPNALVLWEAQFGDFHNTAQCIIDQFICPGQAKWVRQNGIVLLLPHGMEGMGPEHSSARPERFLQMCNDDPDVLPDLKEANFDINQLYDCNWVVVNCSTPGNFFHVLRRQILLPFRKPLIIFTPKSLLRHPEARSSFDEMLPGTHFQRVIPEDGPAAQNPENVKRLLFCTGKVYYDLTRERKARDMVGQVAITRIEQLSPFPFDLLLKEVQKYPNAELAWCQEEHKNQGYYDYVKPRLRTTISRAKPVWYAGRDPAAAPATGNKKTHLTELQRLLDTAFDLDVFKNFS
Description: It is worth noting that there are ongoing clinical trials in hematologic malignancies including AML for a compound designated CPI-613. This drug is an analog of lipoate, a catalytic co-factor and modulator of several metabolic enzymes, including the TCA enzymes pyruvate dehydrogenase (PDH) and OGDH. However, the compound is thought to elicit its anti-cancer effects through an indirect mechanism and may also target additional lipoate-dependent enzymes involved in amino acid catabolism. […] Instead development of specific inhibitors of OGDH was initiated for the purpose of exploiting a known metabolic phenotype mimicking the wt-p53 tumor suppressive effect. These concepts and compounds will be tested in our models of CK AML.

KP^sh cells [2] = test: RNA-Seq / GSEA / qRT-PCR gene expression in KP^sh cells; assay type: cell-based, mouse
Procedure: qRT-PCR. Total RNA was extracted in triplicate wells from indicated conditions using the RNAeasy Mini Kit (Qiagen) according to manufacturer protocols. cDNA was synthesized from 1 μg of RNA (AffinityScript QPCR cDNA synthesis kit, Agilent) and QPCR amplification performed with SYBR green (Perfecta SYBR green fast mix, QuantaBio) using the following primer pairs on a ViiA 7 Real-Time PCR System (Life technologies). 36B4 was utilized as endogenous control.
RNA-Seq. Total RNA was isolated from duplicate wells of indicated conditions. RNA integrity and concentration were assessed using a BioAnalyzer (Agilent). RNA sequencing libraries were generated using Illumina mRNA TruSeq kit with dual index barcoding. […] Approximately 8 million paired-end 76 bp reads were sequenced per replicate on a HiSeq 2500 instrument on RAPID mode. […] Genome wide transcript counting was performed by HTSeq or featureCounts to generate FPKM matrix. […] Differential expression analysis was performed with DESeq2 package in R^50. Genes with a real adjusted p value were used for downstream analyses.
Gene Set Enrichment Analysis. Gene set enrichment analysis (GSEA) was performed using ranked lists. […] GSEAPreranked version 4 was used with default parameters and data were exported and graphed in GraphPad Prism version 7.

KP^sh cells [3] = test: ATAC-Seq chromatin accessibility in KP^sh cells; assay type: cell-based, mouse; details: KP^sh cells with dox, cell-permeable αKG
Procedure: Epigenomic Analysis. 1×10^6 KP^sh cells were washed with PBS and plated on and off dox 8 days (−D8) before collecting cells for ATAC-Seq analysis. Cells maintained on dox and off dox were passaged every 48 h. Three days prior to harvest, dimethyl-α-ketoglutarate (DM-αKG) was added to cells grown on dox, while DMSO was added to cells maintained on dox and cells maintained off dox. All cell groups (On dox, DMSO; On dox, DM-αKG; Off dox, DMSO) were split into 6-well plates in duplicate in fresh media containing dox, DM-αKG, and DMSO as indicated two days prior to harvest. This medium was refreshed 24 h before collection. […] Barcoded libraries were pooled (2-4 samples/lane) and run on an Illumina HiSeq 2500 sequencer using 50 bp paired-end reads.
For data analysis, quality and adapter filtering was applied to raw reads using ‘trim_galore’ before aligning to mouse assembly mm9 with bowtie2 using the default parameters. The Picard tool MarkDuplicates was used to remove reads with the same start site and orientation. The BEDTools suite was used to create read density profiles. Enriched regions were discovered using MACS2 and scored against matched input libraries (fold change >2 and FDR-adjusted p-value <0.1). […] ChIP-seq data were processed in the same way as ATAC-seq data, except read density profiles for ChIP included a read extension equivalent to the average library fragment size. […]

dox-treated KP^sh cells = test: 5hmC flow cytometry in KP^sh cells; assay type: cell-based, mouse; details: KP^sh-2 cells, 4 mM DM-αKG for 72 h
Procedure: (§1) BrdU, Annexin-V, 5hmC Flow Cytometry Assays. BrdU (BD Pharmigen) and Annexin V (BDPharmigen) analysis was performed in triplicate in cells plated in 6-well dishes under indicated conditions via manufacturers' protocols. 5hmC flow was performed in triplicate in cells plated in 6-well dishes. Briefly, adherent cells were washed with PBS, collected by trypsinization, and fixed on ice for 15 minutes in fixation/permeabilization solution (BD Cat #554714). The cells were then washed with 1× perm/wash buffer (BD Cat #554714) supplemented with 0.1% Triton X, treated with 1× perm/wash buffer supplemented with 0.5% Triton X and 0.5% Nonidet P-40 substitute for 30 minutes. Then, the cells were washed with 1× perm/wash buffer supplemented with 0.1% Triton X, incubated overnight at 4° C. with rabbit anti-5hmC antibody diluted 1:100 in 1× perm/wash buffer supplemented with 0.1% Triton X, washed with 1× perm/wash buffer supplemented with 0.1% Triton X, and incubated for 1 hour at room temperature with goat anti-rabbit Alexa Fluor 700 diluted 1:200 in 1× perm/wash buffer supplemented with 0.1% Triton X. The cells were then washed with 1× perm/wash buffer supplemented with 0.1% Triton X, resuspended in 1× perm/wash buffer, and analyzed.

[4] = tested on: p53 mutant human PDAC cells; test: 5hmC flow cytometry in human PDAC cells; assay type: cell-based; details: 8988 and Panel cells, 4 mM DM-αKG for 72 h
Procedure: as §1

KP^sh cells [5] = test: Cell cycle arrest and senescence (BrdU, SA-β-gal) in KP^sh PDAC cells; assay type: cell-based, mouse; details: KP^sh cells on dox; 3 μM etoposide or 25 nM trametinib, 48 or 96 hours
Procedure: Cell Lines and Cell Culture Treatments. KP^sh-1-3 cells were derived from PDAC that developed in three separate Pdx1-Cre; LSL-KrasG12D; Col1a1-TRE-shp53-shRenilla; Rosa26-CAGs-LSL-rtTA-IRES-mKate2 mice generated by blastocyst injection and maintained on doxycycline (dox) chow (625 mg/kg, Harlan Laboratories) 5 days from birth until sacrifice. […] Guide strands for Col1a1 targeted tandem shRNAs were: p53, [sequence] (SEQ ID NO: 1) and Renilla, [sequence] (SEQ ID NO: 2). […] Tumors were diced with scissors and resulting pieces sequentially digested with 1 mg/ml collagenase V (Sigma) diluted in Hanks Buffered saline solution followed by 0.25% Trypsin. Digested suspensions were washed with complete DMEM (DMEM, 10% FBS (GIBCO), 1× Penicillin/Streptomycin) and propagated in complete DMEM on collagen-coated plates (PurCol, Advanced Biomatrix, 0.1 mg/ml). KP^sh cells were grown in complete DMEM supplemented with 1 μg/ml doxycycline.
Senescence Associated Beta-Galactosidase (SA-β-Gal) Assay. SA-β-gal activity was detected as described previously. […] At least 200 cells were analyzed from triplicate wells at all conditions. […]

KP^sh cells [6] = test: αKG/succinate ratio in KP^sh PDAC cells (metabolite profiling); assay type: cell-based, mouse; details: KP^sh cells on dox; 3 μM etoposide or 25 nM trametinib, 48 or 96 hours
Procedure: Cell Lines and Cell Culture Treatments. KP^sh-1-3 cells were derived from PDAC that developed in three separate Pdx1-Cre; LSL-KrasG12D; Col1a1-TRE-shp53-shRenilla; Rosa26-CAGs-LSL-rtTA-IRES-mKate2 mice generated by blastocyst injection and maintained on doxycycline (dox) chow (625 mg/kg, Harlan Laboratories) 5 days from birth until sacrifice. […] KP^floxRIK cells were derived from PDAC that developed in a p48-Cre; LSL-KrasG12D; p53^flox/+; Rosa26-CAGs-LSL-rtTA-IRES-mKate2 mouse generated by blastocyst injection. KP^R172HRIK cells were derived from tumors that developed in a p48Cre^ER; LSL-KrasG12D; LSL-p53^R172H/+; Rosa26-CAGs-LSL-rtTA-IRES-mKate2 mouse generated by blastocyst injection. […]
Metabolite Profiling. […] Samples were analyzed using an Agilent 7890A GC coupled to Agilent 5975C mass selective detector. […] Peaks representing compounds of interest were extracted and integrated using MassHunter software (Agilent Technologies) and peak area was normalized to the internal standard (d5-2HG) peak area and protein content of duplicate samples as determined by BCA protein assay (Thermo Scientific). Ions used for quantification of metabolite levels are as follows: d5-2HG m/z 354; citrate, m/z 465; αKG, m/z 304; aspartate, m/z 334; fumarate, m/z 245; malate, m/z 335 and succinate, m/z 247. […]

Q: What does the source list for `O=C(O)CCCCC(CCSCc1ccccc1)SCc1ccccc1` (centres unmarked) [CPI-613]?
A: cellular ratio of αKG:succinate [1]: not; specificity for OGDH (OGDH): lacks specificity for OGDH; concentration at which OGDH is inhibited (OGDH; in vitro): > 200 µM

Q: How did the “induction of pre-malignant associated genes co-regulated by p53 and αKG (qRT-PCR)” value (KP^sh cells [2]; 4 mM, 72 h) turn out when `CC(=O)[O-].[Na+]` [acetate, sodium acetate] was run?
A: not

Q: For `COC(=O)CCC(=O)C(=O)OC` [cell-permeable αKG, dimethyl-α-ketoglutarate], which “chromatin accessibility (ATAC-Seq)” value (KP^sh cells [3]) is on record?
A: global increase in chromatin accessibility

Q: And the “expression of genes enriched in malignant PDAC cells (GSEA)” value (KP^sh cells [2])?
A: concomitant downregulation of genes enriched in malignant PDAC cells

Q: And the “expression of genes of premalignant PanIN lesions (GSEA)” value (KP^sh cells [2])?
A: robust increase in expression of genes selectively expressed in cells derived from premalignant PanIN lesions

Q: And the “cellular 5hmC” value (dox-treated KP^sh cells)?
A: induced cellular 5hmC

Q: And the “cellular 5hmC” value [4]?
A: induced cellular 5hmC

Q: Which results are given for `COc1cc([C@@H]2c3cc4c(cc3[C@@H](O[C@@H]3O[C@@H]5CO[C@@H](C)O[C@H]5[C@H](O)[C@H]3O)[C@H]3COC(=O)[C@H]23)OCO4)cc(OC)c1O` [etoposide]?
A: cell cycle arrest and senescence (KP^sh cells [5]): triggered cell cycle arrest and senescence; αKG/succinate ratio (KP^sh cells [6]): neither altered the αKG/succinate ratio
